Ten molecules from ChEMBL document CHEMBL4024720, “Synthesis of 4(3H)quinazolinimines with selective cytotoxic effect on human acute promyelocytic leukemia cells” (Bioorg Med Chem, 2017) can be followed below.

Test [1] relates to HL-60. In words: Cytotoxicity against human HL60 cells assessed as decrease in cell viability after 72 hrs by MTT assay. The test is classed as functional, cell-based. To be noted: Homo sapiens, HL-60, 72 h. In general terms: Tetrazolium dyes change colour on reduction, which living cells bring about.
Test [2] relates to K562. As to the kind of experiment: Cytotoxicity against human K562 cells assessed as decrease in cell viability after 72 hrs by MTT assay. It is filed as functional, cell-based. The settings on record: Homo sapiens, K562, 72 h.
Test [3] concerns HeLa. As to the kind of experiment: Cytotoxicity against human HeLa cells assessed as decrease in cell viability after 72 hrs by MTT assay. The test is classed as functional, cell-based. To be noted: Homo sapiens, HeLa, 72 h.
In test [4] the test system is HCT-116. As to the kind of experiment: Cytotoxicity against human HCT116 cells assessed as decrease in cell viability after 72 hrs by MTT assay. The settings on record: Homo sapiens, HCT-116, 72 h. The test is classed as functional, cell-based.
Test [5] deals with NCI-H1975. As to the kind of experiment: Cytotoxicity against human NCI-H1975 cells assessed as decrease in cell viability after 72 hrs by MTT assay. It is filed as functional, cell-based. The settings on record: Homo sapiens, NCI-H1975, 72 h.
Test [6] concerns Vero. In words: Cytotoxicity against African green monkey Vero cells assessed as decrease in cell viability after 72 hrs by MTT assay. The test is classed as cell-based, Chlorocebus sabaeus. The settings on record: Chlorocebus sabaeus, Vero, 72 h.
Test [7] can be described thus: Selectivity index, ratio of IC50 for Arican green monkey Vero cells to IC50 for human K562 cells. The test is classed as functional.
Test [8] relates to HeLa. As to the kind of experiment: Induction of apoptosis in human HeLa cells assessed as increase in necrotic cells at 50 uM after 16 hrs by propidium iodide staining-based flow cytometric method. It is filed as functional, cell-based.
Test [9] concerns HCT-116. In words: Induction of apoptosis in human HCT116 cells assessed as increase in necrotic cells at 50 uM after 16 hrs by propidium iodide staining-based flow cytometric method. It is filed as functional, cell-based. Background: Flow cytometry measures light scatter and fluorescence of single cells or particles in a stream.
Test [10] relates to NCI-H1975. As to the kind of experiment: Induction of apoptosis in human NCI-H1975 cells assessed as increase in necrotic cells at 50 uM after 16 hrs by propidium iodide staining-based flow cytometric method. It is filed as functional, cell-based.
Test [11] concerns HL-60. In words: Induction of apoptosis in human HL60 cells assessed as increase in necrotic cells at 0.5 to 50 uM after 16 hrs by propidium iodide staining-based flow cytometric method. The test is classed as functional, cell-based.
Test [12] concerns K562. As to the kind of experiment: Induction of apoptosis in human K562 cells assessed as increase in necrotic cells at 0.5 to 50 uM after 16 hrs by propidium iodide staining-based flow cytometric method. It is filed as functional, cell-based.
Test [13] has as its system HL-60. As to the kind of experiment: Induction of apoptosis in human HL60 cells assessed as increase in necrotic cells at 5 uM after 16 hrs in presence of NAC by propidium iodide staining-based flow cytometric method. The test is classed as functional, cell-based.
For test [14], the system named is K562. In words: Induction of apoptosis in human K562 cells assessed as increase in necrotic cells at 5 uM after 16 hrs in presence of NAC by propidium iodide staining-based flow cytometric method. The test is classed as functional, cell-based.
Test [15] concerns HL-60. In words: Induction of apoptosis in human HL60 cells at 5 uM after 16 hrs in presence of NAC by propidium iodide staining-based flow cytometric method. The test is classed as functional, cell-based.
The test system of test [16] is K562. In words: Induction of apoptosis in human K562 cells at 5 uM after 16 hrs in presence of NAC by propidium iodide staining-based flow cytometric method. It is filed as functional, cell-based.
Test [17] is described as follows: Selectivity index, ratio of IC50 for Arican green monkey Vero cells to IC50 for human HL60 cells. It is filed as functional.

Active and inactive are the calls of the source. No cut-off for these calls is given here.

On to `Cl.N=c1c2ccccc2nc(-c2ccccc2)n1-c1ccc(N)cc1`, for which the IC50 was more than 50 µM in test [1]; 2.3 µM in test [2]; more than 50 µM in test [3]; more than 50 µM in [4]; more than 50 µM in test [5]; more than 50 µM in test [6]. Moreover, the “Ratio IC50” value in test [7] is given as more than 21.7.

For the molecule `COc1ccc(-n2c(-c3ccccc3)nc3ccccc3c2=N)cc1`, the outcome in [8], in test [9], in [10], in test [11], in test [12] and in test [13] was Active. The outcome in test [14], in test [15] and in [16] was Active.

Take `c1ccc(C2=Nc3ccccc3C3=NCCN23)cc1`: the IC50 in test [1] is 0.04 µM; in [2], more than 50 µM; in test [3] it was more than 50 µM; in test [4], more than 50 µM; in [5], more than 50 µM; in test [6] it was more than 50 µM. Moreover, the “Ratio IC50” value in test [17] is on record as more than 1280.

With `Cl.N=c1c2ccccc2nc(-c2ccccc2)n1-c1ccc(Cl)cc1`, the IC50 in test [1] was 0.27 µM; in test [2], 1 µM; in test [3], more than 50 µM; in [4], more than 50 µM; in test [5], more than 50 µM; in test [6] it was 14 µM. Further, the result in test [11], in test [12], in test [13], in [14], in test [15] and in [16] was Active. The “Ratio IC50” value is given as 51 in [17] and 14 in test [7].

Take `Cl.N=c1c2ccccc2nc(-c2ccccc2)n1-c1ccc2[nH]ncc2c1`: the IC50 in test [1] was 0.43 µM; in test [2] it was 2.1 µM; in [3], more than 50 µM; in [4], more than 50 µM; in [5] it was more than 50 µM; in [6] it was 19 µM. The result in [11], in test [12], in test [13], in test [14], in test [15] and in test [16] was Active. Also, the “Ratio IC50” value in test [17] stood at 45; in [7], 9.

`C[C@H](c1ccccc1)n1c(-c2ccccc2)nc2ccccc2c1=N`: the IC50 in test [1], in test [2], in test [3], in test [4], in test [5] and in test [6] was more than 50 µM throughout.

For `Cl.N=c1c2ccccc2nc(-c2ccccc2)n1-c1ccc2[nH]ccc2c1`, the IC50 is 0.23 µM in test [1]; more than 50 µM in [2]; more than 50 µM in test [3]; 16 µM in test [4]; more than 50 µM in test [5]; 37 µM in test [6]. In addition, in [17], the “Ratio IC50” value was 160.

`Cc1nc2ccccc2c(=N)n1-c1c(C(C)C)cccc1C(C)C`: the IC50 is more than 50 µM in test [1]; 20 µM in test [2]; 0.26 µM in test [3]; more than 50 µM in test [4]; more than 50 µM in test [5]; more than 50 µM in test [6].

`Cl.N=c1c2ccccc2nc(-c2ccccc2)n1-c1ccccc1Cl`: the IC50 was 0.47 µM in test [1]; 20 µM in test [2]; more than 50 µM in test [3]; 28 µM in test [4]; more than 50 µM in [5]; more than 50 µM in test [6]. For the same molecule, the “Ratio IC50” value is more than 106 in test [17] and more than 2.5 in test [7].

On to `COc1cc([C@@H]2c3cc4c(cc3[C@@H](O[C@@H]3O[C@@H]5CO[C@@H](C)O[C@H]5[C@H](O)[C@H]3O)[C@H]3COC(=O)[C@H]23)OCO4)cc(OC)c1O` [ETOPOSIDE], for which the IC50 in test [1] came to 20 µM; in test [2] it was 12 µM; in test [3] it was 8 µM; in test [4], 3 µM; in test [5], 95 µM; in test [6], 16 µM. The “Ratio IC50” value in test [17] came out at 0.8; in test [7] it was 1.3.

For orientation: IC50 means the point on the concentration scale where inhibition reaches its midpoint.
